# Source: PMC12064818, “A general assay platform to study protein pharmacology using ligand-dependent structural dynamics” (Nature Communications, 2025)
# Target: T1, FLuc-C-HiBiT (Photinus pyralis, UniProt P08659)
# T1 construct: firefly luciferase with C-terminal HiBiT tag, E. coli expressed
# Assay: biochemical
# Settings: enzyme activity, 10 uM ATP; read-out: IC50 or SDR50 (mM) / FLuc E
# Procedure: The enzyme activity of FLuc-N-HiBiT, FLuc-C-HiBiT, and FLuc-C-NLuc was measured similar to P. pyralis firefly luciferase (FLuc) as previously described. […] Compounds and controls were added to each plate as described in Supplementary Data 8 with a Hornet pintool system (Wako Automation). Compounds were incubated with respective enzymes for 30–60 min at room temperature protected from light and covered by solid metal lid to prevent evaporation. […] Luciferin was incubated with FLuc enzyme for 5 min before FLuc activity was then measured on a ViewLux CCD imager (PerkinElmer), with exposure times up to ten seconds with medium to high gain settings. Data were normalized to average no enzyme control as 100% enzyme inhibition and average DMSO neutral control. See Supplementary Table 4 for additional details. As a proof-of-concept target, we appended the sensor protein or corresponding α-peptide to either the N- or C-terminus of the target protein firefly luciferase (FLuc), an ATP cofactor-dependent monooxygenase (Supplementary Fig. 1a) having a broad, well-characterized and accessible ligand pharmacology. For initial characterization of the SDR concept, either NLuc or the 11 amino acid HiBiT tag (α-peptide) and complementary 18 kDa LgBiT subunit (ω-fragment), which self-assemble to reconstitute functional NLuc enzyme[24] were tested. In contrast to the ATP-dependent bioluminescent FLuc enzyme, NLuc generates a bright bioluminescence in an ATP-independent manner from the direct oxidation of furimazine (Supplementary Fig. 1b). […] Next, FLuc-C-NLuc, FLuc-N-HiBiT or FLuc-C-HiBiT were assayed with the same inhibitor in an SDR assay format by monitoring bioluminescence from NLuc or its reconstitution by α-complementation with LgBiT. Measurements of NLuc activity were made either in the absence or presence of the FLuc ATP cofactor, as NLuc bioluminescence is ATP-independent.
# T1 sequence (P08659 whole entry, looked up): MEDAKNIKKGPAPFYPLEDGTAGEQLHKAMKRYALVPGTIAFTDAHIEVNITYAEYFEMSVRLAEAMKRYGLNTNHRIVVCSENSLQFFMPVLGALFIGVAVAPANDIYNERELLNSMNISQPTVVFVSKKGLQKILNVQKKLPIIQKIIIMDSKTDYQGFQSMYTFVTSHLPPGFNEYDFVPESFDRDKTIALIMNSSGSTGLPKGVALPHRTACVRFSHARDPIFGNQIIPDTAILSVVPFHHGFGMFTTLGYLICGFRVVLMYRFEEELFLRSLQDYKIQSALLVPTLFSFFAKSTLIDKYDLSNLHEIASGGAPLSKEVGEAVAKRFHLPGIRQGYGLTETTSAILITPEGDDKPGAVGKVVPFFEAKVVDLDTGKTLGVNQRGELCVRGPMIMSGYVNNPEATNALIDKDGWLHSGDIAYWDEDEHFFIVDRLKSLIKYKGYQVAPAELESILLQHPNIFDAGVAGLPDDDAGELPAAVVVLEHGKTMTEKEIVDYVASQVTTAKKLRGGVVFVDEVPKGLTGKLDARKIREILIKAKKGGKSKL
row,SMILES,IC50
1,O=C(O)c1ccc(-c2ccc(N3CCCCCC3)nc2)cc1 [NCGC00432679-01],2.48 µM
2,O=C(Nc1onc2c1CCCC2)c1ccccc1 [NCGC00115884-01],11.1 µM
3,CC(C)c1ccc(N2C(=S)N[C@H]3[C@@H](O)[C@H](O)C[C@@H](C(=O)N(C)Cc4ccccc4)[C@H]32)cc1 [NCGC00391233-01],11.1 µM
4,Cc1nn(-c2ccc(C(C)C)cc2)c(C)c1[C@@H]1C=C[C@@H](NC(=S)NCC(C)C)C1 [NCGC00391239-01],28.6 µM
5,COc1cccc(Nc2cc3c(cn2)CN(Cc2cccnc2)CCN3)c1 [NCGC00411131-01],10.1 µM
6,CC(C)(C)CC(=O)N1C[C@@H]2C[C@H](C1)c1ccc(NC(=O)Nc3cccc(F)c3)c(=O)n1C2 [NCGC00395227-01],> 30 µM
7,CCOc1ccc(C(=O)Nc2ccc(-c3nc4ccccc4s3)c(C)c2)cc1OCC [NCGC00137842-01],> 30 µM
8,CNC(=O)c1cccc(-c2cnc(NC(=O)c3cn(C)cn3)c3c2CCO3)c1 [NCGC00412729-01],20.2 µM
9,Cc1ccc(-c2noc(-c3ccccc3Br)n2)cc1 [NCGC00079622-01],1.57 µM
10,Cc1cc(-c2cc3c(cn2)CN(Cc2cccs2)CCN3)ccn1 [NCGC00411196-01],11.4 µM
11,COc1cc(Cl)ccc1-c1ccc(COc2ccc3c(cnn3CCC(=O)O)c2)cc1 [NCGC00418159-01],20.2 µM
12,COc1cccc(-c2cccc(COc3cnc4c(ccn4CC(=O)O)c3)c2)c1F [NCGC00418177-01],12.8 µM
13,c1ccc(CNc2cc(-c3cc(N4CCCCC4)ncn3)c3cc[nH]c3n2)nc1 [NCGC00436665-01],9.89 µM
14,CN1CCN(c2ccc(-c3cc4c(ccn4C)c(C(=O)NCCC(N)=O)n3)cc2)CC1 [NCGC00411733-01],14.3 µM
15,CCc1ccc2oc(-c3cccc(NC(=O)c4cc5ccccc5o4)c3)nc2c1 [NCGC00098909-01],12.4 µM
16,CCc1ccc2oc(-c3ccc(C)c(NC(=O)c4ccc(C#N)cc4F)c3)nc2c1 [NCGC00103160-01],> 30 µM
17,COc1ccc(-c2cc3c(=O)n(CCNC(=O)c4c(F)cccc4F)ccn3n2)cc1 [NCGC00456908-01],4.95 µM
18,Cc1c(-c2ccccc2F)[nH]c2ccc(CNC(=O)CC3CCC(=O)N3)cc12 (stereo not drawn) [NCGC00425710-01],9.89 µM
19,CCOc1ccc(-c2cc3c(=O)n(CCNC(=O)c4cccc5[nH]ccc45)ccn3n2)cc1 [NCGC00456956-01],5.56 µM
20,Cc1ccc(C(=O)Nc2ccc(-c3nc4ccccc4s3)cc2C)cc1C [NCGC00103062-01],> 30 µM

row,SMILES,IC50
1,O=C1CC2(CCN(CC3CC3)CC2)Oc2cc(Cl)ccc21 [NCGC00476866-01],18 µM
2,COCCN1CCNc2cc(-c3cccc(N(C)C)c3)ncc2C1 [NCGC00411224-01],16.1 µM
3,COc1ccc(-c2nc3ccccc3s2)cc1NC(=O)c1ccccc1OC [NCGC00102097-01],11.1 µM
4,CCCc1ccc(-c2nc(C3CCOC3)no2)cc1 (stereo not drawn) [NCGC00445403-01],7 µM
5,CCN1c2cc(C(=O)Nc3ccc4c(c3)OCCO4)ccc2C(=O)N2CCCC21 (stereo not drawn) [NCGC00452150-01],11.1 µM
6,Cc1ccc(NCc2nc3ccccc3n2CCOc2ccccc2)cc1 [NCGC00104457-01],11.1 µM
7,Cc1ccccc1CCNC(=O)c1ccc2c(c1)nc1n2CCOC1 [NCGC00133426-01],4.95 µM
8,COc1cc2c(cc1-c1ccc(CO)cc1)NC(=O)C21CCN(C)CC1 [NCGC00416803-01],20.2 µM
9,CCNC(=O)N[C@@H]1C=C[C@@H](c2c(C)nn(-c3ccc(C(C)C)cc3)c2C)C1 [NCGC00399948-01],2.86 µM
10,OCC1CCCN(c2ncnc3c2cnn3-c2ccccc2)C1 (stereo not drawn) [NCGC00624837-01],0.394 µM
11,Nc1ccc2nc(-c3ccc(O)cc3)sc2c1 [NCGC00098122-01],0.624 µM
12,Cc1ccc(C(=O)NCCn2cccc2-c2nc(-c3ccc4c(c3)OCO4)no2)cn1 [NCGC00445612-01],11.1 µM
13,O=C(Nc1cccc(Br)c1)c1cc(-c2ccc3c(c2)OCCO3)on1 [NCGC00118911-01],0.989 µM
14,COc1ccc(NC(=O)c2cc3c(=O)[nH]c(C)cn3n2)cc1OC [NCGC00453925-01],9.89 µM
15,Cc1nc[nH]c1CN1CCNc2cc(Nc3ccccc3)ncc2C1 [NCGC00411231-01],18 µM
16,COc1ccc(-c2cc(N3CCCC(NC(=O)c4ccc5ncccc5c4)C3)[nH]n2)cc1 (stereo not drawn) [NCGC00437712-01],3.94 µM
17,COc1cccc(C(=O)Nc2ccc3nc(SCC(=O)N4CCOCC4)sc3c2)c1 [NCGC00118677-01],9.89 µM
18,COCC(=O)N1CCc2nc(C)nc(-c3ccc(OC)cc3)c2C1 [NCGC00480441-01],> 30 µM
19,COc1ccc(Nc2cc3c(nc2OC)nc(CCc2ccccc2)n3C)cn1 [NCGC00417814-01],20.2 µM
20,Oc1c(Br)cc(Br)cc1-c1nc2ccccc2s1 [NCGC00098096-01],12.4 µM

# Second part, the compound after the results:
row,IC50,SMILES
1,11.1 µM,COc1cc(-c2nc3ccccc3s2)ccc1O [NCGC00390758-02]
2,16.1 µM,O=C(Nc1ccccc1)c1nc2c(o1)CCN(CC1CC1)CC2 [NCGC00413351-01]
3,4.42 µM,CCOc1ccccc1C(=O)Nc1nc2c(s1)CC(C)CC2 (stereo not drawn) [NCGC00119172-01]
4,9.89 µM,O=C(c1cc(-c2ccc(F)cc2)nc2ccccc12)N1CCC(c2nc(C3CCOCC3)no2)C1 (stereo not drawn) [NCGC00453669-01]
5,4.95 µM,COc1ccc(C(=O)NCCn2ccn3nc(-c4ccc(C)cc4C)cc3c2=O)c(C)c1 [NCGC00456977-01]
6,16.1 µM,Oc1ccccc1CN1CCNc2cc(-c3ccccc3)ncc2C1 [NCGC00411063-01]
7,1.57 µM,Cc1ccc(-n2ncc3c(N(C)Cc4ccccc4)ncnc32)cc1 [NCGC00139028-01]
8,11.1 µM,COc1ccc(CCNc2nc3ccccc3c3nc(-c4cccc(C)c4)nn23)cc1OC [NCGC00112564-01]
9,16.1 µM,COCCNc1ncc(-c2cccc(NC(C)=O)c2)c2c1OCC2 [NCGC00412815-01]
10,0.00881 µM,CCOc1ccc(NC(=O)Nc2cccc(C(=O)O)c2)cc1 [NCGC00689880-01]
11,7 µM,CCOc1cc2sc(N3CCC(C(=O)Nc4ccc(C(C)C)cc4)CC3)nc2cc1Br [NCGC00113423-01]
12,12.4 µM,Cc1ccc(-c2nc(C(=O)N(C)Cc3ccccc3)no2)cc1 [NCGC00447109-01]
13,18 µM,COc1cc(F)ccc1-c1ccc(COc2ccc3c(cnn3CCC(=O)O)c2)cc1 [NCGC00418071-01]
14,8.05 µM,COc1ccc(-c2ncc3c(n2)OCCN(CC2CC2)C3=O)cc1 [NCGC00413552-01]
15,11.1 µM,CCc1ccccc1Nc1nc(-c2cccc(OC)c2OC)no1 [NCGC00422354-01]
16,9.89 µM,CCOC1CCCN(c2ncnc3c2cnn3-c2ccccc2)C1 (stereo not drawn) [NCGC00616559-01]
17,1.57 µM,Fc1ccccc1-c1nc(-c2ccccc2)no1 [NCGC00058026-03]
18,8.81 µM,O=C(NCCc1ccccc1)c1ccc2c(c1)nc1n2CCOC1 [NCGC00133386-01]

row,IC50,SMILES
1,> 30 µM,COc1ccc(-c2nc3ccccc3s2)cc1NC(=O)c1ccccc1F [NCGC00103034-01]
2,16.1 µM,Cc1ccc(CN2CCc3nc(C(=O)Nc4ccccc4)oc3CC2)cc1 [NCGC00413255-01]
3,> 30 µM,CN1CCC(NC(=O)C(C)(C)Oc2nn(Cc3ncccn3)c3ccccc23)CC1 [NCGC00419638-01]
4,15.7 µM,COc1ccc(-c2noc(-c3ccc(N4CCN(C)CC4)c([N+](=O)[O-])c3)n2)cc1 [NCGC00119282-01]
5,11.1 µM,CSc1cccc(NC(=O)c2ccc3c(c2)N(C)C2CCCN2C3=O)c1 (stereo not drawn) [NCGC00452155-01]
6,9.89 µM,COc1ccc(C(=O)Oc2ccc(C(c3c(C)n[nH]c3O)c3c(C)n[nH]c3O)cc2)cc1 [NCGC00100425-01]
7,11.1 µM,O=C(NC1CCCC1)N1c2ccccc2CC1c1noc(C2CCOCC2)n1 (stereo not drawn) [NCGC00471510-01]
8,20.2 µM,NC(=O)c1cccc(-c2cc3c(cn2)CN(Cc2ccccc2)CCN3)c1 [NCGC00411232-01]
9,0.624 µM,Cc1ccc(-n2ncc3c(NC4CCCC4)ncnc32)cc1 [NCGC00138985-01]
10,6.4 µM,C[S+](=O)([O-])CCn1ncc2cc(OCc3cccc(-c4ccccc4)c3)ccc21 [NCGC00418095-01]
11,17.6 µM,CC(C)(O)CCc1ccc(C(=O)NCCSc2ccccn2)cc1 [NCGC00435911-01]
12,> 30 µM,COc1ccc(-c2noc([C@@H]3Cc4[nH]cnc4CN3C(=O)Nc3ccc(Cl)cc3)n2)cc1 [NCGC00401634-01]
13,9.04 µM,O=C1c2cnc(-c3cccc(C(F)(F)F)c3)nc2OCCN1CC1CC1 [NCGC00413514-01]
14,1.76 µM,Nc1ccc(-c2nc3ccccc3s2)cc1 [NCGC00165328-03]
15,0.00624 µM,COc1ccccc1-c1nc(-c2cccc(C(=O)O)c2)no1 [NCGC00168765-01]
16,1.57 µM,COc1ccc(-c2nc3ccccc3s2)cc1NC(=O)c1cc(OC)c(OC)c(OC)c1 [NCGC00102099-01]
17,12.4 µM,COc1ccccc1NC(=O)CN1C(=O)CC(c2ccc(C)c(C)c2)=Nc2ccccc21 [NCGC00130405-01]
